Experimental data as given in US20030008024A1, “Therapeutic composition of herbal extracts and the uses thereof” (Advanced Herbal Therapeutics, Inc., priority 2001, published 2003).
Like-named read-outs stand apart in the source and are kept apart here.

Tests used:
[1] = tested on: writhing reaction of mice; test: Writhing reaction induced by HAC; assay type: in vivo, Kunming mice; details: 0.01 g/kg once daily 3 days; first 20 minutes
Description: A total of 50 Kunming mice weighing 18-22 g with equal sex distribution were randomly divided into 5 groups. The mice were treated p.o. with different doses of AHT-323, tragacanth, or Morphine hydrochloride once daily for 3 days. One hour later, each mouse was treated with 0.2 ml saline containing 0.7% HAC, i.p. The time to first writhing and the number of writhing during the first 20 minutes were evaluated.

TNFα = TNFα content of peritoneal macrophage suspension after oral dosing (ELISA); assay type: in vivo, ICR mice; details: 0.02 g/kg once daily 10 days
Description: (§1) Total of 50 ICR mice weighing 18˜22 g with equal sex were divided into 5 groups. The mice were administrated orally with different doses of AHT-323 or control (0.5% tragacanth) once daily for 10 days. 24 hours after the last dosing, the peritoneal macrophage suspensions were prepared to measure TNFα content and IL-2 activity.
An ELISA assay was performed using anti-TNFα monoclonal antibody. The TNFα concentration was calculated based on the OD value at 450 nm.

IL-2 = IL-2 activity after oral dosing (IL-2 dependent CTLL cells); assay type: in vivo, ICR mice; details: 0.02 g/kg once daily 10 days
Description: as §1
The IL-2 activity of macrophage was measured with IL-2 dependent CTLL cells by ELISA.

NK cells = NK cells activity of mouse splenocytes (colorimetry); assay type: in vivo, ICR mice; details: 0.02 g/kg once daily ten days
Description: (§2) Totals of 50 ICR mice weighing 18˜22 g with equal sex distribution were randomly divided into five groups. The mice were administrated orally with different doses of AHT-323 or positive control drug respectively, once daily for consecutive ten days. 24 hours after the last dosing, the mice were sacrificed and splenocyte suspension was prepared for measurement of CD4 and CD8 content and NK cells activity.

[2] = tested on: DTH of mice induced by DNFB; test: Delayed type hypersensitivity of mouse ear induced by DNFB; assay type: in vivo, NIH mice
Description: Totals of 50 NIH mice with equal sex were randomly divided into 5 groups. Each mouse was sensitized with 0.025 ml DNBF (1%) at day 0. Five days later […], 0.01 ml DNFB was pasted as aggression on the right ear. The mice were sacrificed 24 hours later and the weight of left and right ears were measured, the difference of which was used to evaluate reaction intensity of the delayed type hypersensitivity (DTH) of the mice.
In this experiment, AHT-323 was given for consecutive six days (0˜5 days) from the day when the mice were first sensitized with DNFB.
Totals of 60 NIH mice were used. AHT-323 treatments were given at different intervals as the following: from d-2 (2 days before first sensitizing) to Day 0 (first sensitization day), from Day-2 to Day 2 (2 days after first sensitizing), from Day-2 to Day5, and from Day 0 to Day 4, respectively. The swelling rate of mouse ear was determined.
Another 50 NIH mice were used to compare AHT-323 with cyclophosphamide or cytoxan (Cy) on the effects on DTH of mice. The mice were treated with either AHT-323 or Cy alone or both at different intervals.

CD4 and CD8 = CD4 and CD8 content of mouse splenocytes (biotin-labeled ELISA); assay type: in vivo, ICR mice; details: 0.02 g/kg once daily ten days
Description: as §2

[3] = tested on: plaque forming cells (PFC) and serum IgM of AA mice; test: Humoral immunity of AA mice (PFC, IgM); assay type: in vivo, NIH mice; details: 0.020 g/kg
Description: An experimental model of adjuvant arthritis was established in NIH mice weighing 20±2 g by intradermal injection of 0.05 ml Freund's Complete Adjuvant (FCA) to the planter of hind paw. Three weeks later, the mice were treated with different dose of AHT-323 for 5 days. At the same time, they were sensitized with 0.5 ml 10% SRBC i.p. The mice were sacrificed 5 days later. The spleen cells were prepared and the plaque forming cells (PFC) were measured, the serum was prepared and IgM was determined.

IL-1 = IL-1 activity in peritoneal macrophages after oral dosing (radio-ELISA); assay type: in vivo, NIH mice; details: 0.02 g/kg p.o. once daily 10 days
Description: (§3) Totals of 50 NIH mice weighing 18-22g with equal sex distribution were divided into 5 groups and administered p.o. with different doses of AHT-323 or cyclophosphamide once daily for 10 days. 24h after the last dosing, mice were sacrificed and peritoneal macrophage and spleen cells suspension were prepared to measure IL-1 and IL-6 activity, respectively.
Method of testing IL-1: IL-1 activity in peritoneal macrophages was measured with radio-ELISA and the result was shown in Table 18.

[4] = tested on: splenocyte lymphocytes stimulated by Con A; test: Lymphocyte blastogenesis of normal mice stimulated by Con A (3H-TdR); assay type: in vivo, NIH mice; details: 0.02 g/kg p.o. once daily 10 days
Description: 50 NIH mice with equal sex distribution were randomly divided into 5 groups. The mice were treated p.o. with different doses of AHT-323 or positive control drug once daily for 10 days. Twenty four hours after the last dosing, mice were sacrificed. The splenocytes were obtained and Con A (Concanavalin) was used to stimulate lymphocytes for transformation. ^3H-TdR adulteration method was used and the result was shown in table 20.

IL-6 = IL-6 activity in splenocytes after oral dosing (ELISA); assay type: in vivo, NIH mice; details: 0.02 g/kg p.o. once daily 10 days
Description: as §3

[5] = tested on: hemolysin antibody formation; test: Hemolysin antibody formation in SRBC-immunized normal mice; assay type: in vivo, mice (NIH, ICR, KM); details: dosing day 0˜7; for Hymolysin Antibody / inhibition at 20 mg/kg: 0.02 g/kg
Description: Totals of 150 mice (50 NIH mice, 50 ICR mice and 50 KM mice) weighing 18-22 g with equal sex distribution were divided into 10 groups, each of which was immunized with 0.2 ml 5% sheep red blood cells (SRBC) i.p. once. AHT-323 was given from d0 to d6. Seven days after immunization, mice were sacrificed and blood was taken from the eyeball. Assay for hemolysin antibody formation was performed and its inhibition rate was evaluated.

[6] = Mus musculus, 0 h, read-out: Inhibition rate (%)
[7] = Table 11, 0.1×3 g/kg, dosing day 0, 2, 4 each

## CN1CC[C@]23c4c5ccc(O)c4O[C@H]2[C@@H](O)C=C[C@H]3[C@H]1C5.Cl [Morphine, Morphine hydrochloride]
[1]
  Torsion number: 0.0 ± 0.0

## O=P1(N(CCCl)CCCl)NCCCO1 (stereo not drawn) [Cy, cyclophosphamide]
TNFα
  TNFα: 42.2 ± 9.6 pg/mL
IL-2
  IL-2: 10.1 ± 3.0 IU/ml
NK cells
  NK Activity: 23.10 ± 3.66
[2]; [6]
  inhibition at 20 mg/kg: 64.9%
  inhibition at 25 mg/kg: 29%
[2]; Mus musculus, read-out: Inhibition rate (%)
  inhibition at 250 mg/kg: -10.6%
[2]; Table 9, 0.020 g/kg, dosing day 0˜5
  % of ear Swelling: 5.4 ± 2.6%
[2]; Table 10, 0.025 g/kg, dosing day 0˜5
  % of ear Swelling: 32.8 ± 7.9%
[2]; [7]
  % of ear Swelling: 24.10 ± 7.28%
  Inhibition rate (%): 39.8%
[2]; Table 11, 0.25 g/kg, dosing day −3
  % of ear Swelling: 44.3 ± 7.9%
CD4 and CD8
  CD4 (%): 11.50 ± 2.50 %
  CD4/CD8: 2.91 ± 0.53
  CD8 (%): 4.10 ± 1.20 %
[3]
  IgM (Log2): 6.950 ± 0.597 Log2
  PFC (OD415): 0.835 ± 0.015 OD415
IL-1
  IL-1: 44.5 ± 7.7 ng/mL
[4]
  Cpm: 9922 ± 1145 Cpm
  Stimulate Index: 13.06 ± 2.28
IL-6
  IL-6: 49.6 ± 6.7 IU/ml
[5]; ICR mice
  Hymolysin Antibody: 28 ± 7
[5]; KM mice
  Hymolysin Antibody: 46 ± 18
[5]; Mus musculus, 0 h, ICR mice, read-out: Inhibition Rate (%)
  inhibition at 20 mg/kg: 77.4%
[5]; Mus musculus, 0 h, KM mice, read-out: Inhibition Rate (%)
  inhibition at 20 mg/kg: 81.1%
[5]; Mus musculus, 0 h, NIH mice, 0.25 g/kg, read-out: Inhibition Rate (%)
  inhibition at 250 mg/kg: 75.4%
[5]; NIH mice, 0.25 g/kg
  Hemolysin Antibody (HC50): 33 ± 8
